From ChEMBL document CHEMBL1135953, “bis-Azaaromatic quaternary ammonium analogues: ligands for alpha4beta2* and alpha7* subtypes of neuronal nicotinic receptors” (Bioorg Med Chem Lett, 2002)

Columns and labels:
[1] = biological target: Neuronal acetylcholine receptor subunit alpha-7 (Rattus norvegicus, UniProt Q05941); test: Binding affinity nicotinic acetylcholine receptor alpha-7 was evaluated by its ability to inhibit [3H]methyllycaconitine ([3H]-MLA) binding to rat brain membranes; design: species or system Membrane
Sequence of Neuronal acetylcholine receptor subunit alpha-7 (Q05941 whole entry): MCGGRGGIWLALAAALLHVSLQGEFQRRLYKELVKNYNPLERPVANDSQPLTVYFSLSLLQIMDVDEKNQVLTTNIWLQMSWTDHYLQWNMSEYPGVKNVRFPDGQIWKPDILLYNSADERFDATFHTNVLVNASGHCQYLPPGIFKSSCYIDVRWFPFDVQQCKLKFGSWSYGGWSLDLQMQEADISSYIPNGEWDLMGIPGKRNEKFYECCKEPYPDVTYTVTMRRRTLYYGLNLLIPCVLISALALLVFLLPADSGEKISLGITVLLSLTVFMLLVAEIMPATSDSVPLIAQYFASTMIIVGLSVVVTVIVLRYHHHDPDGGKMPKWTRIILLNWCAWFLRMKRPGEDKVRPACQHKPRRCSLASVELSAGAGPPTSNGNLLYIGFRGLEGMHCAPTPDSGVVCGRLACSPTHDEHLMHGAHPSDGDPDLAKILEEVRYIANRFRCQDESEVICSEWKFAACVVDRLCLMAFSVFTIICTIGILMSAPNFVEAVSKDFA

[2] = biological target: Neuronal acetylcholine receptor; alpha4/beta2 (Rattus norvegicus, UniProt P09483+P12390); test: Binding affinity for nicotinic acetylcholine receptor alpha4-beta2 was evaluated by its ability to inhibit [3H]NIC binding to rat brain membranes; design: species or system Membrane
Sequence of Neuronal acetylcholine receptor; alpha4/beta2 (P09483 whole entry): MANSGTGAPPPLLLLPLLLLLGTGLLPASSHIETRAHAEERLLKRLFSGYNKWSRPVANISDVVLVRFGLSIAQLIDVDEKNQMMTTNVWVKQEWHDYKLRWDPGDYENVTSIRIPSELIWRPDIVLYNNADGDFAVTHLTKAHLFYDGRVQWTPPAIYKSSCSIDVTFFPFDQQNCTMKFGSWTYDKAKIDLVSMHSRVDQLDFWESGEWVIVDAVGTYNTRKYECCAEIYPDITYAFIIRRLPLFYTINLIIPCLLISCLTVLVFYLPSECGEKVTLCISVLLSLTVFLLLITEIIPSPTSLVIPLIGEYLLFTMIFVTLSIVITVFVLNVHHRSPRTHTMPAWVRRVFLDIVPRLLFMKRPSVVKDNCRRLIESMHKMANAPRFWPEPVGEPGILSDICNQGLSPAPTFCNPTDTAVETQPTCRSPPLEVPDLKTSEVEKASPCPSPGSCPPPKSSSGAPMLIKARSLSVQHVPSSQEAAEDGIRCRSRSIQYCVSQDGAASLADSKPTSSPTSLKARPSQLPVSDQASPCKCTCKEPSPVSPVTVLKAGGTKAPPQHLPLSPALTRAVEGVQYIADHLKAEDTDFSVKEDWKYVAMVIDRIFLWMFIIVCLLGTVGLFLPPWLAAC
Sequence of Neuronal acetylcholine receptor; alpha4/beta2 (P12390 whole entry): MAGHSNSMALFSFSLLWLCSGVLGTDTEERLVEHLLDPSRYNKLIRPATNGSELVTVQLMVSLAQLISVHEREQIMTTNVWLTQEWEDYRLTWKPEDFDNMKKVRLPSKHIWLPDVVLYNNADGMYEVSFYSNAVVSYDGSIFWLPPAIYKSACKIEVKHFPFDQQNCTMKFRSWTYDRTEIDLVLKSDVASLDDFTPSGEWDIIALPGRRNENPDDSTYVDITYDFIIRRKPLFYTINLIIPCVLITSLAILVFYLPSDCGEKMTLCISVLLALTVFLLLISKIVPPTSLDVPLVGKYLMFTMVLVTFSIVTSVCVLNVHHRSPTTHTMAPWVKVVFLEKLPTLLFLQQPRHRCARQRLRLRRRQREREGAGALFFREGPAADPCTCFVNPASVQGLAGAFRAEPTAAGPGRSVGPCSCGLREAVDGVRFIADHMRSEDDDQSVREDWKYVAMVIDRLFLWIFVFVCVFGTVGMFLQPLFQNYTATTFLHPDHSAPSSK

[3] = species: Rattus norvegicus; test: Compound was evaluated for inhibiting NIC-evoked [86Rb+] efflux from rat thalamic synaptosomes; type: functional; details: Brain

Compound: c1cc[n+](CCCCC[n+]2ccccc2)cc1
- Ki [1]: > 100 µM
- Ki [2]: > 100 µM

Compound: c1ccc2c[n+](CCCCCCCC[n+]3ccc4ccccc4c3)ccc2c1
- Ki [1]: 11.7 µM
- Ki [2]: 65.5 µM

Compound: c1cc[n+](CCCCCC[n+]2ccccc2)cc1
- Ki [1]: > 100 µM

Compound: c1ccc2c(c1)ccc[n+]2CCCCCCCCCCCC[n+]1cccc2ccccc21
- Ki [2]: > 100 µM

Compound: CN1CCC[C@H]1c1ccc[n+](CCCCCC[n+]2cccc([C@@H]3CCCN3C)c2)c1
- Ki [1]: > 100 µM

Compound: c1ccc2c[n+](CCCCCCCCC[n+]3ccc4ccccc4c3)ccc2c1
- Ki [1]: 5.95 µM
- Ki [2]: 7.89 µM

Compound: c1ccc2c[n+](CCCCCCCCCCC[n+]3ccc4ccccc4c3)ccc2c1
- Ki [1]: 5.46 µM

Compound: c1ccc2c(c1)ccc[n+]2CCCCCCCCC[n+]1cccc2ccccc21
- Ki [1]: 3.58 µM
- Ki [2]: 22.5 µM

Compound: c1cc[n+](CCCCCCCC[n+]2ccccc2)cc1
- Ki [1]: > 100 µM
- Ki [2]: 34.3 µM

Compound: c1ccc2c(c1)ccc[n+]2CCCCCCCCCCC[n+]1cccc2ccccc21
- Ki [1]: 2.58 µM
- Ki [2]: 37.8 µM

Compound: CN1CCC[C@H]1c1ccc[n+](CCCCCCCCCCC[n+]2cccc([C@@H]3CCCN3C)c2)c1
- Ki [1]: > 100 µM
- IC50 [3]: 5.22 µM
- Ki [2]: 0.43 µM

Compound: CN1CCC[C@H]1c1ccc[n+](CCCCCCCC[n+]2cccc([C@@H]3CCCN3C)c2)c1
- Ki [1]: > 100 µM
- Ki [2]: 1.54 µM

Compound: c1ccc2c[n+](CCCCCCCCCC[n+]3ccc4ccccc4c3)ccc2c1
- Ki [1]: 7.25 µM
- Ki [2]: > 100 µM

Compound: c1cc[n+](CCCCCCCCC[n+]2ccccc2)cc1
- Ki [1]: > 100 µM

Compound: c1cc[n+](CCCCCCCCCC[n+]2ccccc2)cc1
- Ki [1]: > 100 µM

Compound: CN1CCC[C@H]1c1ccc[n+](CCCCCCCCCC[n+]2cccc([C@@H]3CCCN3C)c2)c1
- Ki [1]: > 100 µM
- IC50 [3]: 3.76 µM
- Ki [2]: 0.33 µM

Compound: COc1cc2c3cc1Oc1cc(ccc1O)C[C@@H]1c4c(cc(OC)c(O)c4Oc4ccc(cc4)C[C@@H]3N(C)CC2)CC[N+]1(C)C
- Ki [1]: 4.79 µM
- Ki [2]: 9.72 µM

Compound: c1ccc2c(c1)ccc[n+]2CCCCCCCC[n+]1cccc2ccccc21
- Ki [1]: 2.39 µM
- Ki [2]: > 100 µM

Compound: CCCCCCCC[n+]1cccc([C@@H]2CCCN2C)c1
- Ki [1]: 23.6 µM

Compound: CN1CCC[C@H]1c1ccc[n+](CCCCCCCCC[n+]2cccc([C@@H]3CCCN3C)c2)c1
- Ki [1]: > 100 µM
- Ki [2]: 5.03 µM

Compound: c1ccc2c(c1)ccc[n+]2CCCCCCCCCC[n+]1cccc2ccccc21
- Ki [1]: 7.81 µM
- Ki [2]: > 100 µM

Compound: CN1CCC[C@H]1c1ccc[n+](CCCCCCCCCCCC[n+]2cccc([C@@H]3CCCN3C)c2)c1
- Ki [1]: > 100 µM

Compound: c1ccc2c(c1)ccc[n+]2CCCCCC[n+]1cccc2ccccc21
- Ki [2]: 39.3 µM

Compound: c1cc[n+](CCCCCCCCCCC[n+]2ccccc2)cc1
- Ki [1]: 57 µM
- Ki [2]: 14 µM

Compound: Cc1ccc[n+](CCCCCCCCCCC[n+]2cccc(C)c2)c1
- Ki [1]: > 100 µM

Compound: Cc1ccc[n+](CCCCCCCCC[n+]2cccc(C)c2)c1
- Ki [1]: > 100 µM
- Ki [2]: 79.9 µM

Compound: Cc1ccc[n+](CCCCCC[n+]2cccc(C)c2)c1
- Ki [1]: > 100 µM
- Ki [2]: > 100 µM

Compound: Cc1ccc[n+](CCCCCCCCCCCC[n+]2cccc(C)c2)c1
- Ki [1]: > 100 µM
- Ki [2]: 48.6 µM

Compound: Cc1ccc[n+](CCCCCCCC[n+]2cccc(C)c2)c1
- Ki [1]: > 100 µM
- Ki [2]: > 100 µM

Compound: Cc1ccc[n+](CCCCCCCCCC[n+]2cccc(C)c2)c1
- Ki [1]: > 100 µM
- Ki [2]: > 100 µM

Compound: CCCCCCCCCC[n+]1cccc([C@@H]2CCCN2C)c1
- Ki [1]: > 100 µM
- Ki [2]: 0.064 µM

Compound: C[N+](C)(C)CCCCCC[N+](C)(C)C [HEXAMETHONIUM CHLORIDE]
- Ki [1]: > 100 µM
- Ki [2]: 21.7 µM
